In ChEMBL document CHEMBL2074127, “P-glycoprotein in the blood-brain barrier of mice influences the brain penetration and pharmacological activity of many drugs” (J Clin Invest, 1996) one finds Activity data, which are given here for three compounds.

For data set [1], the target named is T1, ATP-dependent translocase ABCB1 (Mus musculus, UniProt P21447). Nature of the data set: TP_TRANSPORTER: transepithelial transport (basal to apical) in mdr1a-expressing LLC-PK1 cell. It is filed as functional, cell-based. The note with it: pig.
T1 sequence (P21447 whole entry): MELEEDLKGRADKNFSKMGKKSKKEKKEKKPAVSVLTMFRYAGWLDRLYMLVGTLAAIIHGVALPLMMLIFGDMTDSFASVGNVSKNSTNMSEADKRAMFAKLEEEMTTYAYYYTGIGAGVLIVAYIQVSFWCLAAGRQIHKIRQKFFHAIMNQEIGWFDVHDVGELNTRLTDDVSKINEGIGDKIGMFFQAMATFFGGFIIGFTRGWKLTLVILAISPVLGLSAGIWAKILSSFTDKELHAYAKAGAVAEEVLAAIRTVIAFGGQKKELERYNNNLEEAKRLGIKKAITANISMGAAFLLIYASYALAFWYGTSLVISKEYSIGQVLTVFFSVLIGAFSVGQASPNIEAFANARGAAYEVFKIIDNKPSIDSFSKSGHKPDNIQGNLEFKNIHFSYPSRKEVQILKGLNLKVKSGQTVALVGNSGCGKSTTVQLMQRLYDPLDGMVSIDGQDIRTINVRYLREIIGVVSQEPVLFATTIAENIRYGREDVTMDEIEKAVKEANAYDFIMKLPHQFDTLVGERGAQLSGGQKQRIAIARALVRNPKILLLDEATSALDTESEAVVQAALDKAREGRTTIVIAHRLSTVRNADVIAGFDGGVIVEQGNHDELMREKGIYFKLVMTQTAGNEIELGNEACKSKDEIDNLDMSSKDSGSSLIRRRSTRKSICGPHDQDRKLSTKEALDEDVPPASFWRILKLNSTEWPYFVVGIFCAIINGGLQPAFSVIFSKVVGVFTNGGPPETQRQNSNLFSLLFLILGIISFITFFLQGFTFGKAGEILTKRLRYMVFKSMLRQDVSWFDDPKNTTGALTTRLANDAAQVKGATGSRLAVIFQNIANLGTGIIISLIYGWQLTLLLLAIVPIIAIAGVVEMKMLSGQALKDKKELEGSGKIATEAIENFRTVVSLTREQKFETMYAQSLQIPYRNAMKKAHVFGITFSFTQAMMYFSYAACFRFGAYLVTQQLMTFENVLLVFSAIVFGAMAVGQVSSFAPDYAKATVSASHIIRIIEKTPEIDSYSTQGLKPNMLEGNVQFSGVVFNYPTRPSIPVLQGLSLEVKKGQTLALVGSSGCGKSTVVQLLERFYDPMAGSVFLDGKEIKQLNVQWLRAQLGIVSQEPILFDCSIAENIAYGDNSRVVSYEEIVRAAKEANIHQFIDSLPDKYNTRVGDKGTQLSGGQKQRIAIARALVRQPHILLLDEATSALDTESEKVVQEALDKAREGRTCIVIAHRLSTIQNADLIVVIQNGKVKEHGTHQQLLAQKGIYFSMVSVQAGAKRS
The target of data set [2] is T1, ATP-dependent translocase ABCB1. Nature of the data set: TP_TRANSPORTER: increase in brain concentration in mdr1a(-/-) mouse. It is filed as functional, organism-based. The note with it: in vivo.
Data set [3] has as its target ATP-dependent translocase ABCB1 (Homo sapiens, UniProt P08183). The experiment in a line: TP_TRANSPORTER: transepithelial transport (basal to apical) in MDR1-expressing LLC-PK1 cells. The data set is classed as functional, cell-based. The settings on record: pig.

ATP-dependent translocase ABCB1 (Homo sapiens, UniProt P08183), sequence (P08183 whole entry): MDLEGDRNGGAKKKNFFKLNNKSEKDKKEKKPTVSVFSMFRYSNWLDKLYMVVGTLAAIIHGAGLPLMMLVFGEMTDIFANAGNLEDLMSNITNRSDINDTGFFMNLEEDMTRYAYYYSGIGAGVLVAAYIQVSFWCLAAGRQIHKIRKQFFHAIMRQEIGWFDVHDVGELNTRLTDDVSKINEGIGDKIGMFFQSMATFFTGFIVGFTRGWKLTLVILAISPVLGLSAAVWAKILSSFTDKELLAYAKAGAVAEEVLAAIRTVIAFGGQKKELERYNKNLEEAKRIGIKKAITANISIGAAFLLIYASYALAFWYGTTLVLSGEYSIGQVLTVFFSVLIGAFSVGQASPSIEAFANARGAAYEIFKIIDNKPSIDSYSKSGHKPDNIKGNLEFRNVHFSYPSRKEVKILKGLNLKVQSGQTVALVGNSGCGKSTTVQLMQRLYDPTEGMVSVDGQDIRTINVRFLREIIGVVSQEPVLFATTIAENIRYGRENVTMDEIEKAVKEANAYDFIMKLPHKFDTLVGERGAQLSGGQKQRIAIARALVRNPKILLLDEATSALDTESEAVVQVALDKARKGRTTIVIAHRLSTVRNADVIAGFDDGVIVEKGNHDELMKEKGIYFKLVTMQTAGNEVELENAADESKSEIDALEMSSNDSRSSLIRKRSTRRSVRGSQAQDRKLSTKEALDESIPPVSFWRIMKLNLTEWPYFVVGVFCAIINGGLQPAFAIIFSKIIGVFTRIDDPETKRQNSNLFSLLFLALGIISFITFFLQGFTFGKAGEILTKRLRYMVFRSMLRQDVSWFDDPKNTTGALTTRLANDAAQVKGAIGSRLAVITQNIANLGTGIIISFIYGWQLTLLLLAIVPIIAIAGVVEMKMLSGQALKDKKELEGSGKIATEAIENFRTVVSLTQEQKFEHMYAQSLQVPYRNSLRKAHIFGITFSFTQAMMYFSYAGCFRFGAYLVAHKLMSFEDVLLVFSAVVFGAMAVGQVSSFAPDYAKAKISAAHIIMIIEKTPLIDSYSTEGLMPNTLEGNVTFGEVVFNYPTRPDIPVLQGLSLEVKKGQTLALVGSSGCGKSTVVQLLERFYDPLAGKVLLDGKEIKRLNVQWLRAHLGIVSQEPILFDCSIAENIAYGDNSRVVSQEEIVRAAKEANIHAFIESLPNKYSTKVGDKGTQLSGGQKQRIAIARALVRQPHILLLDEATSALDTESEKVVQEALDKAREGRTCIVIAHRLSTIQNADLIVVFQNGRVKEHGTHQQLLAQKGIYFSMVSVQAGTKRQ

Take `O=C1NC(=O)C(c2ccccc2)(c2ccccc2)N1` [PHENYTOIN]: the Activity result in data set [1] was “substrate [+]”.
As for `Cc1nccn1CC1CCc2c(c3ccccc3n2C)C1=O` (stereo unspecified) [ONDANSETRON], the Activity result in data set [2] and in data set [1] was “substrate [+]” throughout.
Take `CN(C)C(=O)C(CCN1CCC(O)(c2ccc(Cl)cc2)CC1)(c1ccccc1)c1ccccc1` [LOPERAMIDE]: the Activity result in data set [2], in data set [3] and in data set [1] was “substrate [+]” each time.
